Measurements from PubChem BioAssay AID248 (DTP/NCI, 2004).
“And” between values parts separate entries of the source, which are not always exact repeats. Identical values can stand only once. Toxic doses and inconclusive results are not listed. No stated cut-off is given here; in the data, active means T/C of 150% or more; inactive means T/C below 125%.

Test system: L1210 leukemia ip in BDF1 mice, survival T/C
Assay: NCI In Vivo Anticancer Drug Screen. Data for tumor model L1210 Leukemia (intraperitoneal) in B6D2F1 (BDF1) mice
Conditions: endpoint: mean survival time, higher = longer survival
Summary of the method: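 Tumor cells were implanted, animals were treated, and survival was followed. The result divides the treated measurement by the vehicle-control measurement.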

[1] = dose: 12.5 mg/kg/injection, schedule: Q04DX003 (ip), vehicle: Klucel (hydroxypropylcellulose) (HPC)
[2] = dose: 25.0 mg/kg/injection, schedule: Q04DX003 (ip), vehicle: Klucel (hydroxypropylcellulose) (HPC)
[3] = dose: 6.25 mg/kg/injection, schedule: Q01DX009 (ip), vehicle: saline with Tween-80
[4] = dose: 100.0 mg/kg/injection, schedule: Q01DX009 (ip), vehicle: Klucel (hydroxypropylcellulose) (HPC)
[5] = dose: 100.0 mg/kg/injection, schedule: Q04DX003 (ip), vehicle: Klucel (hydroxypropylcellulose) (HPC)
[6] = dose: 200.0 mg/kg/injection, schedule: Q01DX009 (ip), vehicle: Klucel (hydroxypropylcellulose) (HPC)
[7] = dose: 200.0 mg/kg/injection, schedule: Q04DX003 (ip), vehicle: Klucel (hydroxypropylcellulose) (HPC)
[8] = dose: 75.0 mg/kg/injection, schedule: Q01DX001 (ip), vehicle: saline
[9] = dose: 150.0 mg/kg/injection, schedule: Q01DX001 (ip), vehicle: saline
[10] = dose: 100.0 mg/kg/injection, schedule: Q01DX001 (ip), vehicle: Klucel (hydroxypropylcellulose) (HPC)
[11] = dose: 200.0 mg/kg/injection, schedule: Q01DX001 (ip), vehicle: Klucel (hydroxypropylcellulose) (HPC)
[12] = dose: 400.0 mg/kg/injection, schedule: Q01DX001 (ip), vehicle: Klucel (hydroxypropylcellulose) (HPC)
[13] = dose: 400.0 mg/kg/injection, schedule: Q04DX003 (ip), vehicle: Klucel (hydroxypropylcellulose) (HPC)
[14] = dose: 400.0 mg/kg/injection, schedule: Q01DX009 (ip), vehicle: Klucel (hydroxypropylcellulose) (HPC)
[15] = dose: 100.0 mg/kg/injection, schedule: Q04DX003 (ip), vehicle: other
[16] = dose: 200.0 mg/kg/injection, schedule: Q04DX003 (ip), vehicle: other
[17] = dose: 400.0 mg/kg/injection, schedule: Q04DX003 (ip), vehicle: other
[18] = dose: 100.0 mg/kg/injection, schedule: Q04DX003 (ip), vehicle: saline with Tween-80
[19] = dose: 100.0 mg/kg/injection, schedule: Q01DX001 (ip), vehicle: saline
[20] = dose: 200.0 mg/kg/injection, schedule: Q01DX001 (ip), vehicle: saline

Measured: T/C

CN=C1C=C(NC)C(F)(F)C1(F)F
inactive: dose: 6.25 mg/kg/injection, schedule: Q01DX009 (ip), vehicle: saline sonified 96 % of control | dose: 12.5 mg/kg/injection, schedule: Q01DX009 (ip), vehicle: saline sonified 100 % of control | [1] 98 % of control | dose: 25.0 mg/kg/injection, schedule: Q01DX009 (ip), vehicle: saline sonified 91 % of control | [2] 98 % of control | dose: 50.0 mg/kg/injection, schedule: Q04DX003 (ip), vehicle: Klucel (hydroxypropylcellulose) (HPC) 97 % of control

O=CC(O)C(Cl)C(Cl)C(O)CCl (centres undefined)
inactive: dose: 100.0 mg/kg/injection, schedule: Q04DX002 (ip), vehicle: saline with Tween-80 98 % of control | dose: 200.0 mg/kg/injection, schedule: Q04DX002 (ip), vehicle: saline with Tween-80 98 % of control | dose: 400.0 mg/kg/injection, schedule: Q04DX002 (ip), vehicle: saline with Tween-80 102 % of control

O=C(O)c1ccccc1C(=O)c1ccc(CBr)cc1
inactive: [3] 92 % of control | dose: 12.5 mg/kg/injection, schedule: Q01DX009 (ip), vehicle: saline with Tween-80 104 % of control | dose: 25.0 mg/kg/injection, schedule: Q01DX009 (ip), vehicle: saline with Tween-80 97 % of control

CCOC(=O)C(=Cc1ccccc1Cl)C(=O)OCC
inactive: [4] 88 % of control | [5] 104 % of control | [6] 99 % of control | [7] 90 % of control

Cc1cc(C)n(-c2nn3nnnc3c3ccccc23)n1
inactive: dose: 62.5 mg/kg/injection, schedule: Q04DX003 (ip), vehicle: saline 101 % of control | dose: 125.0 mg/kg/injection, schedule: Q04DX003 (ip), vehicle: saline 95 % of control | dose: 250.0 mg/kg/injection, schedule: Q04DX003 (ip), vehicle: saline 93 % of control

CC(=O)Nc1nc2ncc(CCN(C)c3ccc(C(=O)O)cc3)nc2c(=O)[nH]1
inactive: [8] 102 % of control | [9] 101 % of control

CCCCCCC[CH2][Sn](=[O])[CH2]CCCCCCC
inactive: dose: 3.12 mg/kg/injection, schedule: Q01DX009 (ip), vehicle: saline with Tween-80 95 % of control | [3] 100 % of control | dose: 100.0 mg/kg/injection, schedule: Q04DX003 (ip), vehicle: acetone 102 % of control

O=C1OCC2CC3c4ccccc4C12c1ccccc13 (centres undefined)
inactive: [10] 100 % of control | [5] 98 % of control | [11] 92 % of control | [7] 93 % of control | [12] 105 % of control | [13] 97 % of control

CN(C(=O)CCCCl)c1cc([N+](=O)[O-])ccc1OCc1ccccc1
inactive: [8] 103 % of control | [9] 104 % of control | dose: 300.0 mg/kg/injection, schedule: Q01DX001 (ip), vehicle: saline 103 % of control

CCN(c1ccccc1)c1ccc(C=O)cc1
inactive: [4] 98 % of control | [5] 97 % of control | [6] 94 % of control | [7] 102 % of control | [14] 93 % of control | [13] 105 % of control

CSc1nc2nc(Cl)c(Cl)nc2[nH]1
inactive: dose: 12.5 mg/kg/injection, schedule: Q01DX009 (ip), vehicle: saline 105 % of control | dose: 25.0 mg/kg/injection, schedule: Q01DX009 (ip), vehicle: saline 102 % of control and 104 % of control | dose: 50.0 mg/kg/injection, schedule: Q01DX009 (ip), vehicle: saline 102 % of control | dose: 100.0 mg/kg/injection, schedule: Q01DX009 (ip), vehicle: saline 98 % of control | dose: 100.0 mg/kg/injection, schedule: Q04DX003 (ip), vehicle: saline 97 % of control | dose: 200.0 mg/kg/injection, schedule: Q04DX003 (ip), vehicle: saline 98 % of control | dose: 400.0 mg/kg/injection, schedule: Q04DX003 (ip), vehicle: saline 108 % of control

COc1ccc(NC2=CC(=O)N(c3ccc(OC)cc3)C2=O)cc1
inactive: [15] 86 % of control | [16] 98 % of control | [17] 98 % of control

Oc1cccc2cccnc12.[Cu+].[O-]c1cccc2cccnc12
inactive: dose: 2.5 mg/kg/injection, schedule: Q01DX009 (ip), vehicle: saline 97 % of control | dose: 2.5 mg/kg/injection, schedule: Q04DX003 (ip), vehicle: alcohol 98 % of control | dose: 5.0 mg/kg/injection, schedule: Q01DX009 (ip), vehicle: saline 108 % of control | dose: 5.0 mg/kg/injection, schedule: Q04DX003 (ip), vehicle: alcohol 112 % of control | dose: 10.0 mg/kg/injection, schedule: Q01DX009 (ip), vehicle: saline 98 % of control | dose: 10.0 mg/kg/injection, schedule: Q04DX003 (ip), vehicle: alcohol 104 % of control

N#CC1=C(N)CCCC1
inactive: [18] 104 % of control

NCCCCC(NC(=O)OCc1ccccc1)C(=O)CCl (centres undefined)
inactive: dose: 10.0 mg/kg/injection, schedule: Q04DX002 (ip), vehicle: saline 109 % of control | dose: 20.0 mg/kg/injection, schedule: Q04DX002 (ip), vehicle: saline 95 % of control

CCOC(=O)c1[nH]c(-c2ccccc2)cc1-c1ccccc1
inactive: [5] 118 % of control | [7] 108 % of control | [13] 108 % of control

CC12CCC(F)(CC1)CC2=O
inactive: dose: 100.0 mg/kg/injection, schedule: Q04DX002 (ip), vehicle: saline 98 % of control | dose: 200.0 mg/kg/injection, schedule: Q04DX002 (ip), vehicle: saline 98 % of control | dose: 400.0 mg/kg/injection, schedule: Q04DX002 (ip), vehicle: saline 102 % of control

O=C(Nc1cccc([N+](=O)[O-])c1)Nc1ccc(F)c([N+](=O)[O-])c1
inactive: [4] 102 % of control | [6] 101 % of control | [14] 98 % of control

CNc1cc(Cl)c(C#N)c(Cl)c1
inactive: [10] 105 % of control | [5] 94 % of control | [11] 105 % of control | [7] 100 % of control | [12] 103 % of control | [13] 99 % of control

O=c1[nH]cc(CCC(F)(F)F)c(=O)[nH]1
inactive: dose: 100.0 mg/kg/injection, schedule: Q04DX002 (ip), vehicle: sodium bicarbonate 102 % of control | dose: 200.0 mg/kg/injection, schedule: Q04DX002 (ip), vehicle: sodium bicarbonate 102 % of control

CCOC(=O)CSCCC1CC(=O)N1 (centres undefined)
inactive: [15] 103 % of control | [16] 104 % of control | [17] 107 % of control

CNC(=S)n1cnc(N)n1
inactive: dose: 50.0 mg/kg/injection, schedule: Q01DX001 (ip), vehicle: saline 107 % of control | [19] 101 % of control | [20] 107 % of control

CC(=O)c1ccc(Br)c([N+](=O)[O-])c1
inactive: [19] 95 % of control | [20] 98 % of control | dose: 400.0 mg/kg/injection, schedule: Q01DX001 (ip), vehicle: saline 103 % of control

N#CC(C#N)=Cc1c(Cl)cccc1Cl
inactive: dose: 6.25 mg/kg/injection, schedule: Q01DX001 (ip), vehicle: Klucel (hydroxypropylcellulose) (HPC) 96 % of control | dose: 6.25 mg/kg/injection, schedule: Q04DX003 (ip), vehicle: Klucel (hydroxypropylcellulose) (HPC) 94 % of control | dose: 12.5 mg/kg/injection, schedule: Q01DX001 (ip), vehicle: Klucel (hydroxypropylcellulose) (HPC) 103 % of control | [1] 114 % of control | dose: 25.0 mg/kg/injection, schedule: Q01DX001 (ip), vehicle: Klucel (hydroxypropylcellulose) (HPC) 96 % of control and 109 % of control | [2] 97 % of control | [10] 105 % of control

CC(C)=NOC(=O)Nc1ccc2c(c1)OCO2
inactive: [18] 109 % of control | dose: 200.0 mg/kg/injection, schedule: Q04DX003 (ip), vehicle: saline with Tween-80 97 % of control | dose: 400.0 mg/kg/injection, schedule: Q04DX003 (ip), vehicle: saline with Tween-80 101 % of control
